Laboratory results reported in ChEMBL document CHEMBL1201862, “PubChem BioAssay data set” (2004).
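Method: 48-hour compound exposure of cells in 96-well plates, five concentrations, linear interpolation of endpoints. Here, GI50 denotes the concentration required for 50% inhibition of growth.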 Active and inactive are the calls of the source. No stated cut-off is given here; in the data, active = GI50 up to about 1.1 µM and inactive = higher.

Columns and labels:
Assay in all cases: DTP human tumour cell line panel, 48 h
786-0 = tested on: 786-0
A549 = tested on: A549
ACHN = tested on: ACHN
CCRF-CEM = tested on: CCRF-CEM
COLO 205 = tested on: COLO 205
DLD-1 = tested on: DLD-1
DMS-114 = tested on: DMS-114
DMS-273 = tested on: DMS-273
EKVX = tested on: EKVX
HCC 2998 = tested on: HCC 2998
HCT-116 = tested on: HCT-116
HCT-15 = tested on: HCT-15
HL-60 = tested on: HL-60
HOP-62 = tested on: HOP-62
HT-29 = tested on: HT-29
IGROV-1 = tested on: IGROV-1
K562 = tested on: K562
KM-20L2 = tested on: KM-20L2
LOX IMVI = tested on: LOX IMVI
LXFL 529 = tested on: LXFL 529
M14 = tested on: M14
M19-MEL = tested on: M19-MEL
MOLT-4 = tested on: MOLT-4
NCI-H226 = tested on: NCI-H226
NCI-H23 = tested on: NCI-H23
NCI-H460 = tested on: NCI-H460
OVCAR-4 = tested on: OVCAR-4
OVCAR-5 = tested on: OVCAR-5
OVCAR-8 = tested on: OVCAR-8
RPMI-8226 = tested on: RPMI-8226
RXF 393 = tested on: RXF 393
SF-268 = tested on: SF-268
SF-539 = tested on: SF-539
SK-MEL-28 = tested on: SK-MEL-28
SK-MEL-5 = tested on: SK-MEL-5
SK-OV-3 = tested on: SK-OV-3
SN12C = tested on: SN12C
SNB-19 = tested on: SNB-19
SNB-75 = tested on: SNB-75
SNB-78 = tested on: SNB-78
SR = tested on: SR
SW-620 = tested on: SW-620
TK-10 = tested on: TK-10
U-251 = tested on: U-251
UACC-257 = tested on: UACC-257
UACC-62 = tested on: UACC-62
UO-31 = tested on: UO-31
XF498 = tested on: XF498
HOP-18 = tested on: HOP-18
HOP-92 = tested on: HOP-92
Malme-3M = tested on: Malme-3M
NCI-H522 = tested on: NCI-H522
NCI/ADR-RES = tested on: NCI/ADR-RES
SK-MEL-2 = tested on: SK-MEL-2

CCO[C@]12C[C@H](OC)[C@@]3(O)CC(C1[C@H]3OCc1ccccc1)C13C4C2[C@H](OC)C1[C@](COC)(CN4CC)[C@H](O)C[C@@H]3OC (stereo not given in full)
GI50 (786-0): 7.38 µM (inactive)
GI50 (A549): > 100 µM (inactive)
GI50 (ACHN): > 100 µM (inactive)
GI50 (CCRF-CEM): > 100 µM (inactive)
GI50 (COLO 205): > 100 µM (inactive)
GI50 (DLD-1): > 100 µM (inactive)
GI50 (DMS-114): > 100 µM (inactive)
GI50 (DMS-273): > 100 µM (inactive)
GI50 (EKVX): > 100 µM (inactive)
GI50 (HCC 2998): > 100 µM (inactive)
GI50 (HCT-116): > 100 µM (inactive)
GI50 (HCT-15): > 100 µM
GI50 (HL-60): > 100 µM (inactive)
GI50 (HOP-62): > 100 µM (inactive)
GI50 (HT-29): > 100 µM (inactive)
GI50 (IGROV-1): > 100 µM (inactive)
GI50 (K562): > 100 µM (inactive)
GI50 (KM-20L2): > 100 µM (inactive)
GI50 (LOX IMVI): > 100 µM (inactive)
GI50 (LXFL 529): > 100 µM (inactive)
GI50 (M14): > 100 µM (inactive)
GI50 (M19-MEL): > 100 µM (inactive)
GI50 (MOLT-4): 95.9 µM (inactive)
GI50 (NCI-H226): > 100 µM (inactive)
GI50 (NCI-H23): > 100 µM (inactive)
GI50 (NCI-H460): > 100 µM (inactive)
GI50 (OVCAR-4): > 100 µM (inactive)
GI50 (OVCAR-5): > 100 µM (inactive)
GI50 (OVCAR-8): > 100 µM (inactive)
GI50 (RPMI-8226): > 100 µM (inactive)
GI50 (RXF 393): > 100 µM (inactive)
GI50 (SF-268): > 100 µM (inactive)
GI50 (SF-539): > 100 µM (inactive)
GI50 (SK-MEL-28): > 100 µM (inactive)
GI50 (SK-MEL-5): > 100 µM (inactive)
GI50 (SK-OV-3): > 100 µM (inactive)
GI50 (SN12C): > 100 µM (inactive)
GI50 (SNB-19): > 100 µM (inactive)
GI50 (SNB-75): > 100 µM (inactive)
GI50 (SNB-78): > 100 µM (inactive)
GI50 (SR): 78.5 µM (inactive)
GI50 (SW-620): > 100 µM (inactive)
GI50 (TK-10): > 100 µM (inactive)
GI50 (U-251): > 100 µM (inactive)
GI50 (UACC-257): > 100 µM (inactive)
GI50 (UACC-62): > 100 µM (inactive)
GI50 (UO-31): > 100 µM (inactive)
GI50 (XF498): > 100 µM (inactive)

O=C1C=C2C(=CCOC2O)O1 (stereo not given) [PATULIN]
GI50 (A549): 4.1 µM (inactive)
GI50 (CCRF-CEM): 0.158 µM (active)
GI50 (DLD-1): 0.456 µM (active)
GI50 (DMS-114): 1.08 µM (active)
GI50 (DMS-273): 0.881 µM (active)
GI50 (HCC 2998): 1.15 µM (inactive)
GI50 (HCT-116): 0.223 µM (active)
GI50 (HCT-15): 0.668 µM
GI50 (HOP-18): 1.98 µM (inactive)
GI50 (HOP-62): 10.6 µM (inactive)
GI50 (HOP-92): 3.08 µM (inactive)
GI50 (IGROV-1): 2.1 µM (inactive)
GI50 (KM-20L2): 2.28 µM (inactive)
GI50 (M19-MEL): 1.29 µM (inactive)
GI50 (MOLT-4): 0.368 µM (active)
GI50 (Malme-3M): 1.12 µM (active)
GI50 (NCI-H226): 3.49 µM (inactive)
GI50 (NCI-H23): 1.15 µM (inactive)
GI50 (NCI-H460): 1.16 µM (inactive)
GI50 (NCI-H522): 0.365 µM (active)
GI50 (NCI/ADR-RES): 0.733 µM (active)
GI50 (OVCAR-4): 2.84 µM (inactive)
GI50 (OVCAR-5): 7.4 µM (inactive)
GI50 (RPMI-8226): 0.189 µM (active)
GI50 (SK-MEL-2): 1.37 µM (inactive)
GI50 (SK-MEL-5): 1 µM (active)
GI50 (SN12C): 0.618 µM (active)
GI50 (SNB-75): 4.28 µM (inactive)
GI50 (SNB-78): 2.32 µM (inactive)
GI50 (UACC-257): 0.723 µM (active)
GI50 (UACC-62): 0.851 µM (active)
GI50 (XF498): 0.267 µM (active)
